Test results as given in patent US12508176B2, “Sanitary article comprising a water-soluble dry coating comprising skin beneficial additives” (priority 2022, dated 2025).

Test: transfer study of dry water-soluble coating from sanitary article to skin (tape stripping, LC-MS/MS)
Assay type: in vivo, test persons
Text: FIG. 3 is a bar chart illustrating the results from a transfer study made with two sanitary articles according to the present invention. Eight test persons wore sanitary articles on three different spots on the volar forearms for three days (3 products per day). One spot was covered with products coated with formula A, one with products coated with formula B and one with reference product without any formula. After three days the skin in the test spots plus one additional spot where no product had been worn was harvested by means of tape stripping. The sample tape strips were extracted, analyzed by LC-MS/MS quantifying the betaine and allantoin content.

| Structure (SMILES) | transfer to the skin (betaine and allantoin content of tape strips) (sanitary articles coated with formula A or B worn on volar forearms for three days, 3 products per day, tape stripping, LC-MS/MS, FIG. 3) | transfer to the skin (betaine and allantoin content of tape strips) (in vivo) |
| --- | --- | --- |
| NC(=O)NC1NC(=O)NC1=O (centres unmarked) [allantoin] | readily detected on the skin | – |
| C[N+](C)(C)CC(=O)[O-] [betaine, trimethylglycine] | – | readily detected on the skin |
